# Reference: publication PMC7723023, “Antimicrobial, anti-cancer, anti-filarial and anti-inflammatory activities of Cowabenzophenone A extracted from the endophytic fungus Aspergillus terreus isolated from a mangrove plant Bruguiera gymnorrhyza” (Mycology, 2019)
# Target: α-glucosidase
# Assay: α-glucosidase inhibition (assay details and enzyme source not described)
# Type: biochemical
smiles,measurement,value
C=C(C)C1CC23C(=O)C4(C/C=C(\C)CCC=C(C)C)CC(CC2C1(C)C)C(C)(C)C(C(=O)c1ccccc1)(C4=O)C3=O (stereo not shown) [Cowabenzophenone A],IC50,7.8 ± 0.5 µM
